Publication doi:10.1101/2025.09.30.679521v1, “Crystallographic characterisation and development of bi-substrate inhibitors of coronavirus nsp14 methyltransferase” (biorxiv, 2025)
Values after ≈ are worked out from the molar mass of the structure shown. Where two headings read alike, the source gives them in different places.

Tests used:
HCoV-229E nsp14 = target: T1, HCoV-229E nsp14 (Human coronavirus 229E, UniProt P0C6X1); experiment: RapidFire MS methyltransferase assay; format: biochemical; conditions: read-out: IC50
T1 construct: gene rep
Description: RapidFire MS methyltransferase assay on HCoV-229E nsp14

in vitro [1] = experiment: in vitro; design: mouse liver microsomal stability; conditions: liver microsomes; Mouse liver microsomes; read-out: Mouse liver Mic T1/2 / min
Description: We initiated our structure-activity relationship (SAR) studies by investigating various replacements for the benzothiazole group, compounds 2-17, Table 1. […] Relatively flat SAR is observed across this subset of compounds, indeed a 6,5 or 6,6 aromatic system with the appropriate connectivity as compound 1 display relatively similar potencies. […] In general, the mouse microsomal clearance was rather low for this set of molecules, with no significant instabilities introduced, with perhaps the exception of compound 4. With no significant advantages in either potency or mouse microsomal clearance (Table S2) identified for this subset, the benzothiazole was taken forward into subsequent SAR studies. Table 2. Enzymatic inhibition against SARS-CoV-2 nsp14, human RNMT, CHI-logD and mouse microsomal stability.

HCoV-NL63 nsp14 = HCoV-NL63 nsp14 (Human coronavirus NL63, UniProt P0C6X5); experiment: RapidFire MS methyltransferase assay; format: biochemical; conditions: read-out: IC50
Description: RapidFire MS methyltransferase assay on HCoV-NL63 nsp14

human RNMT = human RNMT (Homo sapiens, UniProt O43148); experiment: RNMT methyltransferase assay (Gray et al.); format: biochemical
Description: RNMT methyltransferase assay (Gray et al.) on human RNMT

physchem [2] = experiment: physchem
SARS-CoV-2 nsp14 = target: T2, SARS-CoV-2 nsp14 (Severe acute respiratory syndrome coronavirus 2, UniProt P0DTD1); experiment: RapidFire MS methyltransferase assay; format: biochemical; conditions: read-out: IC50
T2 construct: gene rep
Description: RapidFire MS methyltransferase assay on SARS-CoV-2 nsp14

MERS-CoV nsp14 = target: T3, MERS-CoV nsp14 (Betacoronavirus England 1, UniProt K9N7C7); experiment: biochemical
T3 construct: gene rep

in vitro [3] = experiment: in vitro; design: MDCK permeability; conditions: dog, MDCK
SARS-CoV-2 [4] = experiment: microbe, parasite or virus in culture; design: species or system Vero E6; antiviral cytopathic effect assay with SARS-CoV-2 in Vero E6 cells; conditions: Severe acute respiratory syndrome coronavirus 2, Vero C1008; read-out: CPE assay EC50 /
physchem [5] = experiment: physchem; design: solubility
Description: Table 5. Selected compounds with cellular potency. The apparent EC50 values in the cytopathic effect assay are shown, along with the toxicity effect CC50

in vitro [6] = experiment: in vitro; design: cytotoxicity alongside the cytopathic effect assay in Vero E6 cells; conditions: african green monkey, vero e6 cells; read-out: CPE assay CC50 /
Description: This may be due to the increased rigidity of the alkene linkage and a lower entropic penalty upon binding. As a matched pair to the previously reported compounds 32 and 34, we selected potent and stable compound 33 and 40, with the same change of adenosine base, Base A, to Base B and measure the antiviral activity. […] One potential reason for this disparity may be attributed to the differing experimental conditions used in the two assays and requires further investigation. […] Therefore, consistent with the body of the literature, we observed no significant antiviral activity against SARS-CoV-2 for this class of compounds. We hypothesise that as the compounds bind in both the SAM and the RNA pocket of nsp14 and are therefore competitive with both substrates, in the cellular context there is a significant competition with intracellular SAM/SAH and the viral RNA, which is likely present at a higher concentration than used in the biochemical assay. The concentration of SAM used in the SARS-CoV-2 nsp14 assay is 1.0 µM and although measurements of SAM or SAH concentrations in Vero E6 cells haven’t been reported, others have reported intracellular concentrations of SAM of 354 µM in other cell lines.[30] The concentration of the viral RNA substrate in cellulo and increased effective concentrations from the proximity of other nsp proteins involved in viral RNA production may also play a role that is further not captured in the bioche Table 5. Selected compounds with cellular potency. The apparent EC50 values in the cytopathic effect assay are shown, along with the toxicity effect CC50

in vitro [7] = experiment: in vitro; design: MDCK permeability; conditions: dog, MDCK; remark: listed apart in the source
SARS-CoV-2 [8] = experiment: microbe, parasite or virus in culture; design: species or system Vero E6; antiviral cytopathic effect assay with SARS-CoV-2 in Vero E6 cells; conditions: Severe acute respiratory syndrome coronavirus 2, Vero C1008; read-out: CPE assay EC50 /; remark: listed apart in the source

HCoV-NL63 nsp14, sequence (P0C6X5 5568-6085): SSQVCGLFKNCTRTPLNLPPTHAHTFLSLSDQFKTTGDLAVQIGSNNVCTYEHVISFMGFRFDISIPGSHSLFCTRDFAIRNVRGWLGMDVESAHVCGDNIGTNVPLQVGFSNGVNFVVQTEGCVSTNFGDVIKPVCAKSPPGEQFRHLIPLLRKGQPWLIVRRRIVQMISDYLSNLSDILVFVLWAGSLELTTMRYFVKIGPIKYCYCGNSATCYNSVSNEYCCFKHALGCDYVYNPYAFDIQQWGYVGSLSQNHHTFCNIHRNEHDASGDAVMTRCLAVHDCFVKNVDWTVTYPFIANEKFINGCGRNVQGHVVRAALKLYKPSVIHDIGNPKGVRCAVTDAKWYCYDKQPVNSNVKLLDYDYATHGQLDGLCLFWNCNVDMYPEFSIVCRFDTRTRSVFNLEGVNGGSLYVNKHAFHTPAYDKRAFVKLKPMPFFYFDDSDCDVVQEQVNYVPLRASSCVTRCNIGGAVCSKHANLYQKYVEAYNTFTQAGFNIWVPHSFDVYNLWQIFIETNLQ
T1 sequence (P0C6X1 5593-6110): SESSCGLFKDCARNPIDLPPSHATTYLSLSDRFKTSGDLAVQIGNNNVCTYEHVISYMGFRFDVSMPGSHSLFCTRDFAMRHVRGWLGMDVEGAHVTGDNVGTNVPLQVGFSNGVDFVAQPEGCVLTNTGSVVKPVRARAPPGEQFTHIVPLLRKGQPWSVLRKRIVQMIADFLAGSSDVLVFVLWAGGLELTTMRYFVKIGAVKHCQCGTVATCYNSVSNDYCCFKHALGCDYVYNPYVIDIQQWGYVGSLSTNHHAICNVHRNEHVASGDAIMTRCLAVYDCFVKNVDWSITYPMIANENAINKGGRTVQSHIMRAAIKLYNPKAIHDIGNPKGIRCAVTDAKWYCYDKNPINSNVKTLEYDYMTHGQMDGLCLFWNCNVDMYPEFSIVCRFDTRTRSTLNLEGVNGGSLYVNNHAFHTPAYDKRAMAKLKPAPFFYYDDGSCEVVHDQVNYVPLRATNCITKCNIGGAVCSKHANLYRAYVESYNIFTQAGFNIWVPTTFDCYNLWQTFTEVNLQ
human RNMT, sequence (O43148 whole entry): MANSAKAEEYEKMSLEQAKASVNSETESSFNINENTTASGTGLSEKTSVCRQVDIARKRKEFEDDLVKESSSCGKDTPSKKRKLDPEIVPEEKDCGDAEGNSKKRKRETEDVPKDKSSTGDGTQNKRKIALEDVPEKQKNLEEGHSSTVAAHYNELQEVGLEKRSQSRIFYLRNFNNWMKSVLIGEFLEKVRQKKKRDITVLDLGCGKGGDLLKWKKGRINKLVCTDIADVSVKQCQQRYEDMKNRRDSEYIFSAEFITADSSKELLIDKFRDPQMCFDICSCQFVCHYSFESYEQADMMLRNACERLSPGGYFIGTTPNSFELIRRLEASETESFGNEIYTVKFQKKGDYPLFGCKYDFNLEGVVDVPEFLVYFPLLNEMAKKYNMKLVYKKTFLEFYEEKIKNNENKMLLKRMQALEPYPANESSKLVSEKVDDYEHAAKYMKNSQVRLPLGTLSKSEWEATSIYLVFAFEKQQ
T3 sequence (K9N7C7 5909-6432 limits assumed): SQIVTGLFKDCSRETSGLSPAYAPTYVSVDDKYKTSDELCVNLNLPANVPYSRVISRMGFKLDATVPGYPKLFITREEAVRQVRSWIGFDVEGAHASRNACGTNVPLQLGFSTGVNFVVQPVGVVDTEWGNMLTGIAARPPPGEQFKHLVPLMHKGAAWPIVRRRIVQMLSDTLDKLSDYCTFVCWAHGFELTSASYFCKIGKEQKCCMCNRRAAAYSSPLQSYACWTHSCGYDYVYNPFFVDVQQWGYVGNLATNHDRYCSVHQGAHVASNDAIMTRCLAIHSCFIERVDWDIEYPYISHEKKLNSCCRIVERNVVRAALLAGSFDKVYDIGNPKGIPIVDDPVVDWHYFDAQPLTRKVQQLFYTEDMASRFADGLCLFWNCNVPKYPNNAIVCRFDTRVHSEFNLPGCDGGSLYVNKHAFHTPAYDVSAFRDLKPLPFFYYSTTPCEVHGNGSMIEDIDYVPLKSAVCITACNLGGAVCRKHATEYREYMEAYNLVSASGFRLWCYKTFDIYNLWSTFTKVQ

SMILES	IC50 (HCoV-229E nsp14)	half-life (in vitro [1])	IC50 (HCoV-NL63 nsp14)	IC50 (human RNMT)	logD (physchem [2])	IC50 (SARS-CoV-2 nsp14)	IC50 (MERS-CoV nsp14)	Papp (in vitro [3])	EC50 (SARS-CoV-2 [4])	solubility (physchem [5])	CC50 (in vitro [6])	Papp (in vitro [7])	EC50 (SARS-CoV-2 [8])
Nc1ncnc2c1ncn2[C@@H]1C[C@H](CSc2nc3ccccc3s2)[C@@H](O)[C@H]1O [compound 26]	21 ± 4 nM	> 30 min	8 ± 3 nM	> 100000 nM	1.5	53 ± 30 nM	730 nM	–	–	–	–	–	–
Nc1ncnn2c([C@@H]3O[C@H](/C=C/c4nc5ccccc5s4)[C@@H](O)[C@H]3O)ccc12 [compound 40]	49 ± 1 nM	–	13 ± 6 nM	–	1.5	83 ± 100 nM	–	12.8 ×10⁻⁶ cm/s	–	–	–	–	–
Nc1ncnc2c1ncn2[C@@H]1O[C@H](/C=C/c2nc3ccccc3s2)[C@@H](O)[C@H]1O [compound 33, (2R,3R,4S,5R)-2-(6-Aminopurin-9-yl)-5-[(E)-2-(1,3-benzothiazol-2-yl)vinyl]tetrahydrofuran-3,4-diol]	–	> 30 min	–	–	–	–	–	–	8700 nM	18.2 µM (≈ 7.22 µg/mL)	21000 nM	–	–
Nc1ncnc2c1ncn2[C@@H]1O[C@H](/C=C/c2nc3ccccc3s2)[C@@H](O)[C@H]1O [compound 33]	51 ± 9 nM	–	17 ± 1 nM	> 100000 nM	1.3	36 ± 10 nM	–	–	–	–	–	4.9 ×10⁻⁶ cm/s	–
Nc1ncnn2c([C@@H]3O[C@H](/C=C/c4nc5ccccc5s4)[C@@H](O)[C@H]3O)ccc12 [compound 40, (2S,3R,4S,5R)-2-(4-aminopyrrolo[2,1-f][1,2,4]triazin-7-yl)-5-[(E)-2-(1,3-benzothiazol-2-yl)vinyl]tetrahydrofuran-3,4-diol]	–	> 30 min	–	–	–	–	–	–	–	4.7 µM (≈ 1.86 µg/mL)	> 10000 nM	–	> 10000 nM
Nc1ncnn2c([C@@H]3O[C@H](CNS(=O)(=O)c4ccc5ccccc5c4)[C@@H](O)[C@H]3O)ccc12 [compound 34, N-[[(2R,3S,4R,5S)-5-(4-Aminopyrrolo[2,1-f][1,2,4]triazin-7-yl)-3,4-dihydroxy-tetrahydrofuran-2-yl]methyl]naphthalene-2-sulfonamide]	–	9.9 min	–	–	–	–	–	–	–	226 µM (≈ 103 µg/mL)	> 100000 nM	–	30000 nM
Nc1ncnc2c1ncn2[C@@H]1O[C@H](CNS(=O)(=O)c2ccc3ccccc3c2)[C@@H](O)[C@H]1O [compound 32, N-[[(2R,3S,4R,5R)-5-(6-Aminopurin-9-yl)-3,4-dihydroxy-tetrahydrofuran-2-yl]methyl]naphthalene-2-sulfonamide]	–	> 30 min	–	–	–	–	–	–	> 100000 nM	213 µM (≈ 97.2 µg/mL)	> 100000 nM	–	–
Nc1ncnn2c([C@@H]3O[C@H](CNS(=O)(=O)c4ccc5ccccc5c4)[C@@H](O)[C@H]3O)ccc12 [compound 34]	320 ± 10 nM	–	760 ± 310 nM	27700 nM	1.6	170 ± 30 nM	–	1 ×10⁻⁶ cm/s	–	–	–	–	–
Nc1ncnc2c1ncn2[C@@H]1O[C@H](CNS(=O)(=O)c2ccc3ccccc3c2)[C@@H](O)[C@H]1O [compound 32]	300 ± 10 nM	–	530 ± 120 nM	> 100000 nM	1.5	130 ± 40 nM	–	–	–	–	–	1.2 ×10⁻⁶ cm/s	–
